Results published in US7395112B2, “Method and apparatus for treating tumors using low strength electric fields” (priority 2002, dated 2008).

System: DA3 mammary adenocarcinoma
Assay: LEFCT-EC in mice bearing DA3 mammary adenocarcinoma
Format: in vivo, BALB/c mice
Procedure: Animals: BALB/c female mice between the ages of 8 to 12 weeks obtained from the breeding colony of Tel-Aviv University, Israel were used in vivo tumor therapy experiments. Animal care and experimentation was carried out in accordance with Tel-Aviv University guidelines.
Tumor cell line: The highly metastatic, poorly immunogenic mammary adenocarcinoma cell line DA3 (Lopez D M. et al., 1981. J Natl Cancer Inst. 66:191) was used to generate mammary carcinoma tumors in mice. Cells were grown in DMEM supplemented with 100 U/ml penicillin, 100 μg/ml streptomycin, 4 mM glutamine, 1 mM sodium pyruvate, 1% non-essential amino acids and 10% heat-inactivated fetal calf serum (FCS), and cultured at 37° C. in a humidified incubator in an atmosphere of 7% carbon dioxide and 93% air. Tumors of this cell line grown to 1 cm in diameter produce metastatic cells, mainly in the lungs.
Reagents: Taxol (Mead Johnson Oncology Products, A Bristol-Myers Squibb, USA), obtained as a sterile nonpyrogenic solution containing 6 mg/ml paclitaxel, 527 mg/ml of purified Cremophor EL (polyoxyethylated castor oil) and 49.7% (v/v) dehydrated ethanol; and bleomycin (MegaPharm, Israel) were the anti cancer drugs used.
Low-strength electric field enhanced cancer chemotherapy protocol: Mice were subjected to a single treatment of LEF-chemotherapy, once primary tumors reached 5 mm in diameter (about 60-70 mm^3) (11-17 days following subcutaneous tumor cell inoculation). Up to 100 μl of chemotherapeutic agents was injected into the tumor loci. The exposure to electric field was carried out as described above in Example 2 of the Examples section.
Effect of LEFCT-EC using bleomycin or taxol on the survival of DA3 mammary adenocarcinoma bearing nice: BALB/c mice bearing DA3 mammary adenocarcinoma were treated by LEF-chemotherapy with intratumoral taxol (20 mg/kg) (FIG. 19) or bleomycin (30 U/kg) (FIG. 20) administration and their survival rate was compared with that of mice treated only with LEF or chemotherapy.

bleomycin
survival time, Mean (LEF-chemotherapy with the drug): 85.3 | survival time, Median (LEF-chemotherapy with the drug): 64.5 | cure rate (LEF-chemotherapy, intratumoral taxol 20 mg/kg or bleomycin 30 U/kg, 180 days after tumor inoculation): 30% | survival time, Mean (drug alone, intratumoral): 40.2 | survival time, Median (drug alone, intratumoral): 37.5
